From PMC10586324 (Journal of medicinal chemistry, 2023)
Like-named read-outs stand apart in the source and are kept apart here.

Columns and labels:
[1] = Nephelometry kinetic solubility screen in PBS; format: physicochemical
Mabs ATCC19977 = test: MBC determination by CFU counting
[2] = Plasma stability, murine plasma; format: in vitro ADME; settings: 1 μM, 120 min
Mabs = settings: enantiomers; cited from earlier work
[3] = oral administration, rats; cited from earlier work
[4] = system: HEP 93 liver cancer cell line; settings: cited from earlier work
[5] = oral administration, mice; cited from earlier work

## O=C(N[C@H](Cc1ccccc1)C(=O)Nc1ccccc1N1CC[S+]([O-])CC1)c1ccccc1F [Compound 15]
[1]
  solubility relative to MMV688845: approximately 5 times
Mabs ATCC19977
  MBC99 as multiple of MIC90: 2 X MIC90

## O=C(N[C@H](Cc1ccccc1)C(=O)Nc1ccccc1N1CCS(=O)(=O)CC1)c1cccs1 [Compound 20]
Mabs ATCC19977
  MBC99 as multiple of MIC90: 2 X MIC90

## O=C(N[C@H](Cc1ccccc1)C(=O)Nc1ccccc1N1CCS(=O)(=O)CC1)c1ccccc1F [Compound 24]
[2]
  stability in murine plasma: improved stability

## O=C(N[C@H](Cc1ccccc1)C(=O)Nc1ccccc1N1CCOCC1)c1cccs1 [MMV688845, Nα-2-thiophenoyl-D-phenylalanine-2-morpholinoanilide]
Mabs
  activity against Mabs: shows activity
[3]
  drug plasma levels: low drug plasma levels
[4]
  cytotoxicity HEP 93: non-cytotoxic
Mabs ATCC19977
  MBC99 as multiple of MIC90: 8 X MIC90
Mabs ATCC19977; at 6.25 μM (derivatives: 6.25 μM and higher)
  reduction of viable bacteria: no reduction
[2]
  stability in murine plasma: stronger decline in concentration than compound 24
[5]
  drug plasma levels: low drug plasma levels
